No end group written: not given here.
Tests used:
Escherichia coli = test: Filter paper bacteriostatic circle test, Escherichia coli; assay type: cell-based; details: 20 μL of liquid medicine diluted by 10 times on 6.5 mm filter paper, 37° C., 24 hours
Experimental: (§1) In order to confirm the above conjecture, the application verifies the antibacterial effect of the traditional Chinese medicine concentrated solution prepared in each embodiment, and the method is as follows: • (1) taking Staphylococcus aureus and Escherichia coli grown on ordinary nutrient agar plates, dipping a small number of colonies with an inoculating loop, inoculating colonies into 5 mL of Mueller-Hinton (MH) broth, and performing shake culture at 37° C. for 6 hours at 200 r/min; taking bacterial liquid in logarithmic growth period and diluting the bacterial liquid with sterilized physiological saline until the bacterial content is 1-2×10^8 CFU/ml; diluting with sterilized physiological saline for 1000 times for later use; • (2) making a round filter paper with a diameter of 6.5 mm with a puncher, and dry-heat sterilizing it; first, evenly inoculating the bacterial liquid obtained in step (1) into a nutrient agar culture dish, then attaching the sterilized round filter paper to the surface of agar, transferring 20 μL of liquid medicine (diluted by 10 times) with a micropipette gun, dropping the liquid medicine in the center of the round filter paper, culturing it at 37° C. for 24 hours, and measuring the diameter of the bacteriostatic circle in which different liquid medicines are dropped.

Staphylococcus aureus = test: Filter paper bacteriostatic circle test, Staphylococcus aureus; assay type: cell-based; details: 20 μL of liquid medicine diluted by 10 times on 6.5 mm filter paper, 37° C., 24 hours
Experimental: as §1

dairy cows with mastitis = test: Therapeutic effect on dairy cows with mastitis (cure judged by sodium hydroxide curdled milk test); assay type: in vivo; details: ointments applied externally 2 g each time, twice a day for 5 days, control perfused with penicillin 100,000 IU, tested one day after stopping
Description: Fifty dairy cows with mastitis detected by Shanghai Mastitis Test (SMT) are selected from a dairy farm in Hunan Province, of which 20 cows are externally coated with the traditional Chinese medicine ointment for preventing and treating mastitis in dairy cows prepared in embodiment 1 and 20 cows are externally applied with the traditional Chinese medicine ointment for preventing and treating mastitis in dairy cows prepared in comparative example 1, with the dosage of 2 g each time, twice a day for 5 days. The remaining 10 cows are perfused with penicillin 100,000 IU after all the milk is discharged from their breasts, as a control group.
Cure standard: one day after stopping the ointments, if curdled milk is negative by the sodium hydroxide test, the cows are judged to be cured.

| Substance | Diameter of bacteriostatic circle of Escherichia coli (mm) (Escherichia coli) | Diameter of bacteriostatic circle of Staphylococcus aureus (mm) (Staphylococcus aureus) | Cure rate (%) (dairy cows with mastitis) | Cows (head) with curdled milk being negative by sodium hydroxide test (dairy cows with mastitis; 20, 20 and 10 cows per group) [head] |
| --- | --- | --- | --- | --- |
| FFRKVLKLIRKIWR [1 from Hunan University of Science and Engineering, preparation per CN111529683A] | 14.7 | 15.3 | – | – |
| penicillin [Control group] | – | – | 80 | 8 |

Source: patent publication US12214006B2, “Traditional chinese medicine ointment for preventing and treating mastitis in dairy cows, and preparation method thereof” (Hunan University of Science and Engineering, priority 2022, dated 2025)
